# Source: patent US8822449B2, “Substituted aminoindanes and analogs thereof, and the pharmaceutical use thereof” (Sanofi, priority 2008, dated 2014)
# Molecular target: T1, sodium-proton exchanger of subtype 3 (NHE3) (Homo sapiens, UniProt P48764)
# T1 construct: expressed in transfected cells
# T1 sequence (P48764 26-834): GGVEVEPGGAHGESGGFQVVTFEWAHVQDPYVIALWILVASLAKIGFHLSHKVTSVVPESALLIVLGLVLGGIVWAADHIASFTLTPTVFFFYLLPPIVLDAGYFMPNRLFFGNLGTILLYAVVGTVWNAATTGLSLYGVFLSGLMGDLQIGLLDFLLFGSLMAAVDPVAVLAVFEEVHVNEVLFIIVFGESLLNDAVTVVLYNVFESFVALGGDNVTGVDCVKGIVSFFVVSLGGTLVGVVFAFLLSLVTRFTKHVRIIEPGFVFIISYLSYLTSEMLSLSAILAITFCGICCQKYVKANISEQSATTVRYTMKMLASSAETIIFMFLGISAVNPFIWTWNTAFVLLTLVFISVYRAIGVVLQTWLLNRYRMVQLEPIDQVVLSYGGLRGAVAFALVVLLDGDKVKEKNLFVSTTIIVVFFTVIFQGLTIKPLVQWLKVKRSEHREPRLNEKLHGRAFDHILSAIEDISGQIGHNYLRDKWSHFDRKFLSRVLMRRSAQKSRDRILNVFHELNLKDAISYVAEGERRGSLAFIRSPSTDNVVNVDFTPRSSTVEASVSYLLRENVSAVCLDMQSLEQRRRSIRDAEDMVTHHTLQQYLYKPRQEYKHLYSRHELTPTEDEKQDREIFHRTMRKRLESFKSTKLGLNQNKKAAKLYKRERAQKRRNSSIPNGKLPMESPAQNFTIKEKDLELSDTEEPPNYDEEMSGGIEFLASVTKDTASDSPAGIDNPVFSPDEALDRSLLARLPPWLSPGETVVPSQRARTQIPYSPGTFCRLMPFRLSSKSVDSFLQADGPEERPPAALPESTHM
# Assay: Recovery of intracellular pH (pHi) after acidification in LAP1 cells stably expressing NHE3 (BCECF fluorescence, FLIPR)
# Format: cell-based
# Conditions: LAP1 cells stably expressing NHE3; pH recovery after acidification; range 1 is % inhibition at 10 μM; read-out: Activity range (inhibitory effect on NHE3)
Structure (SMILES),IC50,inhibition at 10 µM
"CN(CCO)[C@H]1Cc2c(Cl)cc(Cl)cc2[C@@H]1Oc1ccc(S(C)(=O)=O)cc1 [Example 702, 2-{[trans-(1S,2S)-4,6-Dichloro-1-(4-methanesulfonyl-phenoxy)-indan-2-yl]-methyl-amino}-ethanol]",< 1 µM,–
"Cc1nnc(C)n1-c1ccc(O[C@H]2c3cc(Cl)cc(Cl)c3C[C@@H]2N2CCCNCC2)cc1 [Example 347, 1-{trans-(1S,2S)-4,6-dichloro-1-[4-(3,5-dimethyl-[1,2,4]triazol-4-yl)phenoxy]indan-2-yl}-[1,4]diazepane]",< 1 µM,–
"COC[C@@H]1CCCN1[C@H]1Cc2c(Cl)cc(Cl)cc2[C@@H]1Oc1ccc(-n2c(C)nnc2C)cc1 [Example 562, 4-{4-[trans-(1S,2S)-4,6-dichloro-2-((S)-2-methoxymethylpyrrolidin-1-yl)indan-1-yloxy]phenyl}-3,5-dimethyl-4H-[1,2,4]triazole]",1 to 10 µM,–
"CS(=O)(=O)c1ccc(CO[C@H]2c3cc(Cl)cc(Cl)c3C[C@@H]2N2CC[C@@H](O)C2)c(Cl)c1 [Example 24, (R)-1-[(1S,2S)-4,6-dichloro-1-(2-chloro-4-methanesulfonylbenzyloxy)indan-2-yl]pyrrolidin-3-ol]",–,20 to 50%
"Cc1nnc(C)n1-c1ccc(O[C@H]2c3cc(Cl)ccc3C[C@@H]2N2CC[C@@H](O)C2)c(Cl)c1 [Example 139, (R)-1-{trans-(1S,2S)-6-chloro-1-[2-chloro-4-(3,5-dimethyl-[1,2,4]triazol-4-yl)phenoxy]indan-2-yl}pyrrolidin-3-ol]",< 1 µM,–
"CN(C)Cc1ccc(O[C@H]2c3ccccc3CC[C@@H]2N2CCC[C@H](N)C2)cc1 (racemic) [Example 177, (S)-1-[rac-trans-(1,2)-1-(4-dimethylaminomethylphenoxy)-1,2,3,4-tetrahydronaphthalen-2-yl]piperidin-3-ylamine]",–,20 to 50%
"NS(=O)(=O)c1ccc(O[C@@H]2c3ccccc3C[C@H]2NC2CCC2)c(F)c1 (racemic) [Example 709, 4-(rac-trans-(1,2)-2-Cyclobutylamino-indan-1-yloxy)-3-fluoro-benzenesulfonamide]",< 1 µM,–
"CS(=O)(=O)c1ccc(O[C@H]2c3cc(Cl)cc(Cl)c3C[C@@H]2N2CCC[C@@H](NCCF)C2)cc1 [Example 222, {(R)-1-[trans-(1S,2S)-4,6-dichloro-1-(4-methanesulfonylphenoxy)indan-2-yl]piperidin-3-yl}-(2-fluoroethyl)amine]",< 1 µM,–
"Fc1ccc(O[C@H]2c3ccccc3C[C@@H]2N2CCCC2)c(-c2ccn[nH]2)c1 [Example 575, 5-[5-fluoro-2-(trans-(1S,2S)-2-pyrrolidin-1-ylindan-1-yloxy)phenyl]-1H-pyrazole]",–,20 to 50%
"CN(C)C(=O)Cc1ccc(O[C@H]2c3ccccc3CC[C@@H]2N2CCC[C@H](N)C2)cc1 (racemic) [Example 382, 2-{4-[rac-trans-(1,2)-2-((S)-3-aminopiperidin-1-yl)-1,2,3,4-tetrahydronaphthalen-1-yloxy]phenyl}-N,N-dimethylacetamide]",–,20 to 50%
"N[C@H]1CCCN([C@@H]2Cc3ccccc3[C@H]2Oc2ccc(S(N)(=O)=O)c(Cl)c2Cl)C1 (racemic) [Example 536, 4-[rac-trans-(1,2)-2-((S)-3-aminopiperidin-1-yl)indan-1-yloxy]-2,3-dichlorobenzenesulfonamide]",1 to 10 µM,–
"N[C@@H]1CCCN([C@@H]2Cc3ccccc3[C@H]2Oc2ccc3oc(=O)sc3c2)C1 (racemic) [Example 579, 5-[rac-trans-(1,2)-2-((R)-3-aminopiperidin-1-yl)indan-1-yloxy]benzo[1,3]oxathiol-2-one]",1 to 10 µM,–
"O=C1CCC(=O)N1c1ccc(Cl)c(O[C@H]2c3cc(Cl)cc(Cl)c3C[C@@H]2N2CC[C@@H](O)C2)c1 [Example 337, 1-{4-chloro-3-[(1S,2S)-4,6-dichloro-2-((R)-3-hydroxypyrrolidin-1-yl)indan-1-yloxy]phenyl}pyrrolidine-2,5-dione]",1 to 10 µM,–
"Cc1ccc(F)c(O[C@H]2c3ccccc3CC[C@@H]2N2CCC[C@@H](N)C2)c1 (racemic) [Example 43, (R)-1-[rac-trans-(1,2)-1-(2-fluoro-5-methylphenoxy)-1,2,3,4-tetrahydronaphthalen-2-yl]piperidin-3-ylamine]",–,20 to 50%
"N[C@@H]1CCCN([C@H]2CCc3ccccc3[C@@H]2Oc2ccc(Br)cc2-c2cc[nH]n2)C1 (racemic) [Example 117, (R)-1-{rac-trans-(1,2)-1-[4-bromo-2-(1H-pyrazol-3-yl)phenoxy]-1,2,3,4-tetrahydronaphthalen-2-yl}piperidin-3-ylamine]",1 to 10 µM,–
"Cc1nnc(C)n1-c1ccc(O[C@H]2c3cc(Cl)cc(F)c3C[C@@H]2NC2CCCC2)c(F)c1 [Example 749, {trans-(1S,2S)-6-Chloro-1-[4-(3,5-dimethyl-[1,2,4]triazol-4-yl)-2-fluoro-phenoxy]-4-fluoro-indan-2-yl}-cyclopentyl-amine]",1 to 10 µM,–
"CC(=O)Nc1cccc(O[C@H]2c3ccc(F)cc3C[C@@H]2N2CCCC2)c1 (racemic) [Example 656, N-[3-(rac-trans-(1,2)-5-fluoro-2-pyrrolidin-1-ylindan-1-yloxy)phenyl]acetamide]",1 to 10 µM,–
"Cc1nnc(C)n1-c1ccc(O[C@H]2c3ccccc3C[C@@H]2N2CCCC2)cc1 (racemic) [Example 405, 3,5-dimethyl-4-[4-(rac-trans-(1,2)-2-pyrrolidin-1-ylindan-1-yloxy)phenyl]-4H-[1,2,4]triazole]",< 1 µM,–
"N[C@@H]1CCCN([C@H]2Cc3c(Cl)cc(Cl)cc3[C@@H]2Oc2ccc(F)c3cccnc23)C1 [Example 27, (R)-1-[(1S,2S)-4,6-dichloro-1-(5-fluoroquinolin-8-yloxy)indan-2-yl]piperidin-3-ylamine]",< 1 µM,–

# Further lines, results first:
IC50,inhibition at 10 µM,Structure (SMILES)
< 1 µM,–,"N[C@@H]1CCCN([C@H]2Cc3c(Cl)cc(Cl)cc3[C@@H]2Oc2ccc(F)cc2-c2cc[nH]n2)C1 [Example 113, (R)-1-{(1S,2S)-4,6-dichloro-1-[4-fluoro-2-(1H-pyrazol-3-yl)phenoxy]indan-2-yl}piperidin-3-ylamine]"
< 1 µM,–,"Cc1nnc(C)n1-c1ccc(O[C@H]2c3cc(Cl)cc(Cl)c3C[C@@H]2N2CC[C@@H](O)C2)c(F)c1F [Example 126, (R)-1-{trans-(1S,2S)-4,6-dichloro-1-[4-(3,5-dimethyl-[1,2,4]triazol-4-yl)-2,3-difluorophenoxy]indan-2-yl}pyrrolidin-3-ol]"
< 1 µM,–,"O=C1OCCN1c1ccc(Cl)c(O[C@H]2c3cc(Cl)cc(Cl)c3C[C@@H]2N2CC[C@@H](O)C2)c1 [Example 434, 3-{4-chloro-3-[(1S,2S)-4,6-dichloro-2-((R)-3-hydroxypyrrolidin-1-yl)indan-1-yloxy]phenyl}oxazolidin-2-one]"
< 1 µM,–,"Fc1ccc(O[C@H]2c3cc(Cl)cc(Cl)c3C[C@@H]2N2CCNCC2)c(-c2cc[nH]n2)c1 [Example 309, 1-{(1S,2S)-4,6-dichloro-1-[4-fluoro-2-(1H-pyrazol-3-yl)phenoxy]indan-2-yl}piperazine]"
1 to 10 µM,–,"O=C1CCCN1c1ccc(O[C@H]2c3cc(Cl)cc(Cl)c3C[C@@H]2N2CCCC2)cc1 [Example 260, 1-[4-((1S,2S)-4,6-dichloro-2-pyrrolidin-1-ylindan-1-yloxy)phenyl]pyrrolidin-2-one]"
1 to 10 µM,–,"CN1CCN(C(=O)c2ccc(O[C@H]3c4ccccc4C[C@@H]3N3CCCC3)cc2)CC1 (racemic) [Example 22, (4-methylpiperazin-1-yl)-[4-(rac-trans-(1,2)-2-pyrrolidin-1-ylindan-1-yloxy)phenyl]methanone]"
1 to 10 µM,–,"Cc1nnc(C)n1-c1ccc(O[C@H]2c3ccccc3C[C@@H]2N2CCC[C@@H](N)C2)cc1 [Example 121, (R)-1-{trans-(1S,2S)-1-[4-(3,5-dimethyl-[1,2,4]triazol-4-yl)phenoxy]indan-2-yl}piperidin-3-ylamine]"
–,20 to 50%,"O=[N+]([O-])c1ccc(O[C@H]2c3ccccc3C[C@@H]2N2CCCC2)c(Cl)c1 (racemic) [Example 251, 1-[1-(2-chloro-4-nitrophenoxy)indan-2-yl]pyrrolidine]"
–,20 to 50%,"N[C@H]1CCCN([C@H]2CCc3ccccc3[C@@H]2Oc2ccc(Cl)nc2)C1 (racemic) [Example 190, (S)-1-[rac-trans-(1,2)-1-(6-chloropyridin-3-yloxy)-1,2,3,4-tetrahydronaphthalen-2-yl]piperidin-3-ylamine]"
–,20 to 50%,"CS(=O)(=O)c1ccccc1O[C@H]1c2ccccc2CC[C@@H]1N1CCC[C@@H](N)C1 (racemic) [Example 45, (R)-1-[rac-trans-(1,2)-1-(2-methanesulfonylphenoxy)-1,2,3,4-tetrahydronaphthalen-2-yl]piperidin-3-ylamine]"
–,20 to 50%,"N#Cc1ccc2cccc(O[C@H]3c4ccccc4CC[C@@H]3N3CCOCC3)c2n1 (racemic) [Example 594, 8-(rac-trans-(1,2)-2-morpholin-4-yl-1,2,3,4-tetrahydronaphthalen-1-yloxy)quinoline-2-carbonitrile]"
